Reference: US20220257595A1, “MACITENTAN FOR USE IN TREATING PORTOPULMONARY HYPERTENSION” (ACTELION PHARMACEUTICALS LTD, priority 2019, published 2022)

Assay: PORTICO PK substudy: steady-state plasma macitentan and ACT-132577
Type: in vivo, human
Description: It was planned to enroll at least 20 patients who were on steady-state treatment with macitentan (i.e., at least 4 weeks) into the PK substudy. The substudy was conducted in consenting patients from all centers across all regions who agreed to participate. The substudy consisted of the following periods:
PK assessments period: PK assessments were to be performed after OL study treatment had been taken for at least 4 weeks. The substudy comprised two visits (Day 1: Enrollment and Day 2: Conclusion). See, FIG. 2. Subject eligibility was first checked on Day 1 of the PK substudy prior to the start of assessments.
PK substudy: On Day 1 of the PK substudy, the study treatment was required to be taken directly after the pre-dose blood sample. On Day 2 of the PK substudy, study treatment was required to be taken after the collection of the last PK blood sample (24 hours post Day 1 dose).
F3. Pharmacokinetic Endpoints for Macitentan and its Active Metabolite ACT-132577 • The area under the plasma concentration-time curve during one dosing interval (AUCt). • Maximum plasma concentration (Cmax) during a dosing interval. • The time to reach maximum plasma concentration (tmax) during a dosing interval.
(i) Timing for sampling: For the PK assessment, blood samples were drawn at the following time points: • PK substudy Day 1: Immediately before study treatment administration in the morning (pre-dose) and 1 h, 3 h, 5 h, 6 h, 7 h, 8 h, 9 h, 10 h, 12 h, and 14 h post-dose. • PK substudy Day 2: 24 h post-dose.
(iii) Bioanalysis: A validated liquid chromatography coupled to mass spectrometry method was used for determining the concentrations of macitentan and its metabolite ACT-132577 in plasma. The limit of quantification (LOQ) for both analytes was 1 ng/mL.
The measured individual plasma concentrations of macitentan and its metabolite ACT-132577 were used to directly obtain Cmax and tmax. AUCT was calculated according to the linear trapezoidal rule using the measured concentration-time values above the LOQ during one dosing interval. The PK variables were calculated on the basis of the real (actual) blood sampling time points. For mean value calculations, all values below the LOQ (below the limit of quantification (BLQ) values) were set to zero if ≤50% of the values at a given time point were BLQ. If >50% of the values at a given time point were BLQ, no mean value was calculated. Mean concentration-time profiles were generated using these criteria. The individual and mean plasma concentration-time profiles were plotted on a linear scale. The derived PK variables for macitentan and ACT-132577 (AUCT, Cmax, tmax) are listed by patient. Plasma concentrations per time point were summarized using arithmetic mean, minimum, median, maximum, standard deviation (SD), standard error (SE), and two-sided 95% confidence interval of the mean. […] (*For tmax the geometric mean and its 95% confidence interval were not calculated).

NS(=O)(=O)Nc1ncnc(OCCOc2ncc(Br)cn2)c1-c1ccc(Br)cc1 [ACT-132577, aprocitentan]
Plasma exposure in PoPH patients compared with other forms of PAH / other macitentan studies: consistent between PoPH patients and patients with other forms of PAH
Trough plasma concentration, mean±SD (OL macitentan 10 mg o.d. at least 4 weeks, PoPH patients, n=8): 737.4 ± 190.0 ng/mL
Cmax (human, plasma, oral, macitentan 10 mg o.d., PoPH patients, PKS 10 patients, read-out: Cmax, geometric mean (95% confidence interval)): 870 ng/mL
Tmax (human, plasma, oral, macitentan 10 mg o.d., PoPH patients, PKS 10 patients, read-out: tmax, median (range)): 6.5 h
AUCT, geometric mean (95% confidence interval) (one dosing interval, macitentan 10 mg o.d., PoPH patients): 18100.0 ng·h/mL
